This is an account of results in publication PMC9120013, “Ribosome inhibition by C9ORF72-ALS/FTD-associated poly-PR and poly-GR proteins revealed by cryo-EM” (Nature Communications, 2022).

Series [1] has as its system ribosomes on endogenous beta-globin mRNA in RRL. Nature of the series: Toeprinting of 80S and 4-5-mer polysome fractions on beta-globin mRNA. Type of series: biochemical, rabbit. The settings on record: for normalized ratio START to CDS, MEAN: 4-5-mer, primer B, mean of ten 20 bp windows. Here is the method:
Toeprinting analyses were carried out similarly to those in refs. [51],[74], using 80S and polysome (4–5-some) fractions collected from polysome profiles as described in “Polysome Profiles” except that reactions were doubled in size (200 μL), performed at 37 °C, and were stopped with ice-cold 1xAMV Buffer (50 mM Tris-HCl pH 8.3, 50 mM KCl, 5 mM MgCl2) with 200 μg/ml cycloheximide before being separated on at 10–35% sucrose gradient in 1xAMV buffer with 0.5 mM spermidine and 1 mM DTT. 600 μl of each fraction (80S or 4–5-mer) was supplemented with 10 mM DTT. Then 10 U of AMV reverse transcriptase (Promega), 120 nmol dNTPs, and 120 pmol of a 5'[6-carboxyfluorescein (FAM)]-labeled primer (IDT-DNA) were added. Two primers specific to the endogenous beta-globin mRNA in RRL were used in separate reactions: 5′-(FAM)-GGACTCGAAGAACCTCTG (as in ref. [74]) annealed 136 nucleotides downstream of the AUG or 5′-(FAM)-[…] annealed to the end of the 3'-UTR. Primers were extended at 37 °C for 30 min, and then the reaction were extracted in 1:1 phenol:chloroform, supplemented with 1/10 volume of 3 M sodium acetate pH 5.2, and precipitated with 2.5 volumes of 100% ethanol. Pellets were resuspended in 10 μl of deionized formamide (Applied Biosystems) with 1/20 volume of a 35-500 nucleotide orange-dye labeled DNA size standard (MCLab) and loaded onto a 96-well plate. The samples were sent for fragment analysis by capillary electrophoresis to the UMass Chan Medical School Molecular Biology Core Laboratory using an ABI3730XL DNA Fragment Analyzer with capillaries loaded with POP-7 polymer and with an injection voltage of 12.5 kV. Data collection was performed with GeneMapper software (ABI). Data were exported as.fsa files and were analyzed (aligning to ladder and background correction) in GeneMarker 3.0.1 software (SoftGenetics) running in demo mode. Screen captures of traces were taken and traces were integrated using the “Quantification” feature and manually adjusting sliders to include the desired nucleotide range.

Series [2] relates to ribosomes on endogenous globin mRNAs in RRL. Put plainly: Polysome profiling of RRL translating endogenous mRNA. In kind it is biochemical, rabbit. The conditions noted are these: 4 μM PR20, 4 μM GR20, 1 mM GDPCP; 5 min. On the procedure:
Polysome profiles were obtained using RRL untreated with nuclease, so that it contained endogenous mRNA. 100 μl reactions containing 50% RRL (Green Hectare) 30 μM hemin (Sigma), 75 mM KCl, 0.5 mM MgCl2, 1 mM ATP, 0.2 mM GTP, 2.1 mg/ml creatine phosphate, 30 μM of L-amino acid mix, 15 mg/ml yeast tRNA, 6 mM BME and, when appropriate, translation inhibitors (4 μM PR20, 4 μM GR20, cycloheximide, 40 μM harringtonine, or 1 mM GDPCP with 1 mM MgCl2) were assembled on ice. To start translation, the reactions were warmed in a heat block at either 30 °C or 37 °C as noted. After 5 min, reactions were terminated by addition of 100 μl of ice-cold Stop Buffer (50 mM Hepes-KOH pH 7.4, 150 mM KOAc, 10 mM Mg(OAc)2, and 200 μg/ml cycloheximide). The stopped reactions were applied to 10–50% sucrose gradients in Gradient Buffer (50 mM Hepes-KOH pH 7.4, 150 mM KOAc, 10 mM Mg(OAc)2, 2 mM DTT, and 100 μg/ml cycloheximide) and spun in an SW-41 rotor (Beckman Coulter) at 197,568xg (avg) for 2 h at 4 °C. Gradients were pumped on a Gradient Station (BioComp Instruments) at a pump rate of 0.29 mm/min and the absorbance at 254 nm was measured by an Econo UV monitor (Biorad) zeroed with 10% sucrose-gradient buffer. The traces were output as CSV files and imported into GraphPad Prism, where the 80S peaks were aligned. Controls were highly reproducible day-to-day. Each experimental condition is shown compared to concurrent, uninhibited control.

The test system of series [3] is translation in E. coli cell lysates. Nature of the series: Nanoluciferase translation in E. coli cell lysate (NEBExpress). In kind it is biochemical. The conditions noted are these: 1 μl of 200 μM stock in 10-μl reaction. Here is the method: E. coli cell lysates (NEBExpress, NEB) were used to investigate bacterial translation inhibition by GR20 and PR20. We monitored the translation of an in vitro transcribed mRNA encoding a Shine-Dalgarno sequence preceding the nanoluciferase (Promega) open reading frame. The mRNA was prepared by in vitro transcription of a PCR-template obtained by amplifying the nanoluciferase open reading frame from the plasmid described in reference with the following primers: T7 + SD-forward: […], based on the pet28a+ plasmid and reverse: […]. […] Then 1 μl of water or different concentrations (10-100 μM) of PR20 or GR20 or 200 μM erythromycin were added and the plate was incubated at 37 °C for 5 min inside of an Infinite m1000 pro microplate reader (Tecan). Next, the nanoluciferase mRNA was added to the final concentration of 20 ng/μl in a 10-μl reaction. Translation reactions were incubated at 37 °C for 20 min, luminescence of the samples was continuously measured by the microplate reader to record the time course of protein synthesis. Time progress curves, obtained in the experiments, were processed in MS Excel, and the rate of change of the relative light units between 100 and 200 s was measured, the mean and SEM of three experiments is reported in column graph in Supplementary Fig. 2a.

The subject of series [4] is E. coli 70S ribosomes. Nature of the series: Erythromycin competition in the puromycin assay on 70S ribosomes. The conditions noted are these: for fMet-puromycin formed: 20 μM erythromycin and/or 2 μM PR20, 30 nM 70S, quenched at 300 s. Type of series: biochemical. Here is the method: The assay was performed as described above for the puromycin kinetics, except that the 70S ribosomes were pre-incubated with 22 μM erythromycin for 5 min prior to adding PR20. The stock solution of erythromycin contained 2 mM erythromycin in ethanol, so the control reaction (70S with no erythromycin) and the reactions with erythromycin were prepared to contain the same amount of ethanol (1%). The final concentrations after addition of puromycin were: 30 nM 70S, 66 nM [^35S]-fMet-tRNA^fMet, 1 μM mRNA, 2 μM PR20 (no PR20 in the control reaction), 20 μM erythromycin (or no erythromycin in a control reaction), 50 µM puromycin (in 20 mM Tris-acetate (pH 7.0), 100 mM NH4OAc, 12 mM Mg(OAc)2 and 1% ethanol). Samples were quenched at 300 s when the uninhibited reaction had reached a plateau.

The test system of series [5] is translation. The settings on record: even at 100 µM; cited from earlier work. An excerpt:
(§1) This work uncovers how the toxic arginine-containing DPR proteins associated with C9ORF72-ALS/FTD inhibit translation. […] Poly-PR and poly-GR binding to large subunits and assembled 80S ribosomes would compete with the binding of initiator Met-tRNA or elongator tRNAs, and strongly interfere with peptidyl transfer, consistent with transl ...

The conditions of series [6]: even at 100 µM; cited from earlier work.
Source text: as §1

Series [7] addresses Oryctolagus cuniculus (rabbit) 80S ribosome (rabbit (Oryctolagus cuniculus)) (UniProt G1SVW5).
Series [8] shares this target. This is another data set of the same source.
Series [9] addresses Escherichia coli 70S ribosome (E. coli).

With `Nc1nc2c(ncn2[C@@H]2O[C@H](COP(=O)(O)OP(=O)(O)CP(=O)(O)O)[C@@H](O)[C@H]2O)c(=O)[nH]1` [GDPCP], the “site of ribosome accumulation, toe-printing of polysome fractions” value in series [1] was “accumulate within the open reading frame”. In addition, the “Ratio (START to CDS)” value in [1] (80S fraction, primer A, Fig. 2f independent repeat) worked out at 1.314. In addition, the “Normalized ratio START/ORF” value in [1] (80S fraction, primer A, Fig. 2f independent repeat, no inhibitor = 1) is on record as 0.4872. Also, the results for the “normalized ratio START to CDS, MEAN” value in [1] (Fig. 2g) and in series [1] (Fig. 2h independent repeat) were 0.7887 and 0.4286, respectively. The “polysome profile, half-mer peaks” value in series [2] is reported as “increase in half-mer peaks”.

Consider `CC[C@H]1OC(=O)[C@H](C)[C@@H](O[C@H]2C[C@@](C)(OC)[C@@H](O)[C@H](C)O2)[C@H](C)[C@@H](O[C@@H]2O[C@H](C)C[C@H](N(C)C)[C@H]2O)[C@](C)(O)C[C@@H](C)C(=O)[C@H](C)[C@@H](O)[C@]1(C)O` [erythromycin], for which the “effect on nanoluciferase translation in E. coli cell extracts” value in series [3] is listed as “Inhibition of nanoluciferase translation”. For the same compound, the values for the fMet-puromycin formed in series [4] (first column (replicate 1)) and in series [4] (second column (replicate 2)) were 1468 and 1479, respectively. Also, in [4] (20 μM erythromycin, 2 μM PR20), the “effect of erythromycin preincubation on inhibition by PR20” value is “prevents the inhibitory action of PR20”.

Take “GRKKRRQRRRPPQ [TAT, arginine-rich polypeptide]”: in series [5], the translation inhibition entry was “not to cause translation inhibition”. The cell death result in [6] was “not to cause translation inhibition or cell death”.

As for “PR20 (poly-proline-arginine, 20 repeats) (peptide)”, in [7], the IC50 of translation of nanoluciferase mRNA in 33% rabbit reticulocyte lysate was 325 nM and the IC50 of translation of nanoluciferase mRNA in 50% rabbit reticulocyte lysate was determined as 840 nM. The compound further displayed a concentration at which inhibition of peptidyl transfer to puromycin begins on purified rabbit 80S ribosomes in series [8] of 100 nM. In [9], the apparent inhibition constant (Ki) of peptidyl transfer from [35S]-fMet-tRNAfMet to puromycin on E. coli 70S ribosomes was found to be 44 nM.

On to “PR40 (poly-proline-arginine, 40 repeats) (peptide)”, for which the apparent inhibition constant (Ki) of peptidyl transfer to puromycin on purified rabbit 80S ribosomes in series [8] is less than 30 nM. Also, the apparent inhibition constant (Ki) of peptidyl transfer to puromycin on E. coli 70S ribosomes in [9] is less than 30 nM.

In the case of “RRRRNRTRRNRRRVR [FHV, arginine-rich polypeptide]”, the translation inhibition result in series [5] is on record as “not to cause translation inhibition”. Also, the cell death entry in [6] was “not to cause translation inhibition or cell death”.

With “RRRRRRRRRRRR [R12, arginine-rich polypeptide]”, the translation inhibition result in series [5] is recorded as “not to cause translation inhibition”. For the same compound, the cell death entry in [6] is listed as “not to cause translation inhibition or cell death”.
